In one test the test system is hepatocytes. The settings on record: read-out: IC50, hepatocyte toxicity, cited from earlier work.
A further test concerns the target BSEP (Homo sapiens, UniProt O95342). Put plainly: biochemical.

A word on the IC50: it is the midpoint of a concentration-inhibition curve.

Molecules are shown by their SMILES. Read-outs that look alike come from different tables or passages of the source.

Chain of BSEP (O95342 whole entry): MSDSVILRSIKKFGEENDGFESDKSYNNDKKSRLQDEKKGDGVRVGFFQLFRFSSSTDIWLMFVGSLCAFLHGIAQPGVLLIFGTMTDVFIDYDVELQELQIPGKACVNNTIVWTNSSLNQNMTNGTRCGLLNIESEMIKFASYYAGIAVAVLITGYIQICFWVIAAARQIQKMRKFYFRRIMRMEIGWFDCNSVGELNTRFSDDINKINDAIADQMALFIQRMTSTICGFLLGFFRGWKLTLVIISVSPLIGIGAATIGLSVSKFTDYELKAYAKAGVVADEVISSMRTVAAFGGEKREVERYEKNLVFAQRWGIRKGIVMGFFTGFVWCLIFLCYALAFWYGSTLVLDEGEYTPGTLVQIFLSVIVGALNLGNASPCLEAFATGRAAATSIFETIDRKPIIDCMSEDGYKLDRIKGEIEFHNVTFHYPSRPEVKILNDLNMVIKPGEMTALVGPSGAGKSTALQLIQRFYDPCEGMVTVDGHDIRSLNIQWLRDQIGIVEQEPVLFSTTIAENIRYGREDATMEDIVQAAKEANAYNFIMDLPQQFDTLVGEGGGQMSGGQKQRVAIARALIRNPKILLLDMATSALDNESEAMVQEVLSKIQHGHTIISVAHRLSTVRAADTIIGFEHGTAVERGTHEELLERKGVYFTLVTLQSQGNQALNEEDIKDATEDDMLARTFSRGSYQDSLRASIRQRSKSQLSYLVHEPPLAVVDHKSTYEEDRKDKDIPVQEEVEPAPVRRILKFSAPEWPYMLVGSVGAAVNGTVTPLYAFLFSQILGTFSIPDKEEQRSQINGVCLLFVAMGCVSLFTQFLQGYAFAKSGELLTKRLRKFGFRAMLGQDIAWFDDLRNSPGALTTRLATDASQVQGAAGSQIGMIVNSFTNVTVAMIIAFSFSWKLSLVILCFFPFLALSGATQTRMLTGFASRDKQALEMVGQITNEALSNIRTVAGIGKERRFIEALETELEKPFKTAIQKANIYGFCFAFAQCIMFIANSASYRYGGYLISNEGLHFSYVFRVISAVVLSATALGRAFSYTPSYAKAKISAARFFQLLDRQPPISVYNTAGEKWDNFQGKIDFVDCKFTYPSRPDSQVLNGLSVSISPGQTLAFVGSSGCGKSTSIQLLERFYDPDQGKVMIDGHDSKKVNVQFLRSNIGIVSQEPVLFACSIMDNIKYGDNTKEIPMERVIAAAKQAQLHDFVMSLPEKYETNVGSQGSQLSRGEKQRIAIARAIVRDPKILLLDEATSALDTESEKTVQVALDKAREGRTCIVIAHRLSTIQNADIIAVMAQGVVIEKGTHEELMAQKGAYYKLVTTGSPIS

For the compound `Cc1cc(OCCCS(C)(=O)=O)cc(C)c1-c1cccc(COc2ccc3c(c2)OC[C@H]3CC(=O)O)c1` [TAK-875, fasiglifam, reference compound], the IC50 with hepatocytes (time of incubation 24 h) was 68 µM; in the test with hepatocytes (time of incubation 48 h), 56 µM; at BSEP, 47.3 µM.
